Measurements taken from patent US9283289B2, “Self-quenching activatable COX-2-specific multi-modal molecular probes for diagnosis of cancers, inflammation, and immune system disorders” (The Board of Trustees of the Leland Stanford Junior …, priority 2012, dated 2016).

Columns and labels:
[1] = tested on: basal cell carcinoma (BCC), squamous cell carcinoma (SCC) and melanoma tumors; assay: In vivo fluorescence imaging of skin tumors after systemic (retro-orbital) injection of the probe; set-up: species or system mouse
Text: Imaging agents based on the well-characterized COX-2 inhibitors can be used for the early detection of skin cancer and help define tumor margins. […] A continuing problem is the detection of small tumors that are indistinguishable over non-specific background fluorescence.
FIGS. 1A and 1B illustrate in vivo detection of Fluorocoxib accumulation in Basal Cell Carcinoma Imaging with CRi Maestro. FIG. 1A: Histology and identification of tumor cell; FIG. 1B: from lesion 3 (arrows).
However, for skin or other epithelial applications, as well as to improve on its TBR on systemic administration, it is desirable to limit the non-specific signal. To overcome this undesirable background fluorescent signal that can mask signals from smaller tumors and other sites having low-level expression of COX-2, the present disclosure provides molecular probes wherein the fluorescent COX-2-specific construct comprises a fluorescent quencher linked to the probe by a cleavable linker. Upon entry into a cell and binding of the Fluorocoxib to COX-2, the quencher can be displaced from the vicinity of the fluorophore by, for example, a cytoplasmic peptidase cleavage of the cleavable linker, allowing the generation of a detectable fluorescent signal. […]
The capability of this probe to detect early stage skin tumors that cannot be detected by visual inspection was investigated. […]

[2] = LC/MS-MS quantification in mouse blood after topical application; format: in vivo

level in mouse blood [2]: undetectable
Substance: 5-Rox-D-indomethacin [Fluorocoxib A]
size of small tumors visualized ([1]; genetically engineered mouse model of non-melanoma skin cancer, systemic administration, 1 mg/kg): approximately 100 μm
fluorescence detection in tumor areas ([1]; three hours after retro-orbital injection, in vivo imaging and tissue histology): selectively detected
